A word on the LD50: it is the dose at which mortality reaches 50%. As a reminder, the ED50 is the midpoint of the dose-response relation. Low values mean an effect at a small dose, high ones a need for a large dose. For orientation: IC50 means the concentration that gives 50% inhibition.

A short description of one data set: Acute toxicity. The note with it: mouse, in vivo, male mice.
Data set [1] deals with inhibition of gastric emptying caused by sulphated CCK-8. The data set is described as follows: Gastric emptying model in mice: antagonism of the inhibition of gastric emptying caused by sulphated CCK-8. The data set is classed as in vivo, mice (SWISS male). The note with it: Mus musculus, sulphated CCK-8 80 μg/kg, sc.
For data set [2], the target named is T1, CCK receptors of rat pancreas (Rattus norvegicus, UniProt P30551).
T1 construct: of rat pancreas plasma membranes; from tissue; host or cells: rat pancreas plasma membranes (SD50 males; animals from IFFA CREDO)
T1 sequence (P30551 1-444): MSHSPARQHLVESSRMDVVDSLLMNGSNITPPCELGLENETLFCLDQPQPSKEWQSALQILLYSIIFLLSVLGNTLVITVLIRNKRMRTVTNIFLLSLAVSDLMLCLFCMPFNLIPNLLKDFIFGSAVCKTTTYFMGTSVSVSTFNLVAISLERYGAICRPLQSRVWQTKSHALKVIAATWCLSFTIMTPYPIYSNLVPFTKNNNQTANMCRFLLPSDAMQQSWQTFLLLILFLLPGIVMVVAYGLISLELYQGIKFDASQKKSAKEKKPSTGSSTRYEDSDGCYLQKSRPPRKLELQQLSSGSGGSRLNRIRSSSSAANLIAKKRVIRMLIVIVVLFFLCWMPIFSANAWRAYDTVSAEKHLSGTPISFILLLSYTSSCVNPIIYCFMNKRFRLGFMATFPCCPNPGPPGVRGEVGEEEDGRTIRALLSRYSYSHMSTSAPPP
The data set is described as follows: Inhibition of binding of sulphated [125I]-CCK8 to receptors of rat pancreas plasma membranes. The note with it: for ratio of the IC50 for the brain receptors to the IC50 for the pancreas receptors: guinea-pig brain / rat pancreas. An excerpt: of rat pancreas plasma membranes (SD50 males, IFFA CREDO, 200-225 g)

The nature of the next data set: IRWIN's tests (behavior). The note with it: for IRWIN (first dose modifying one of the parameters of behavior): male mice; for selectivity ratio: mouse, in vivo. The method, then: The acute toxicity was evaluated and IRWIN's tests (IRWIN S., Psychopharmacologia, 13, 222-257, 1968) were performed in male mice (20-21 g).
Data set [3] concerns the target T2, CCK receptors of guinea-pig brain (Cavia porcellus, UniProt H0VZC5).
T2 construct: of guinea-pig brain membranes; from tissue; host or cells: guinea-pig brain membranes (males; animals from COB LABO)
T2 sequence (H0VZC5 1-426): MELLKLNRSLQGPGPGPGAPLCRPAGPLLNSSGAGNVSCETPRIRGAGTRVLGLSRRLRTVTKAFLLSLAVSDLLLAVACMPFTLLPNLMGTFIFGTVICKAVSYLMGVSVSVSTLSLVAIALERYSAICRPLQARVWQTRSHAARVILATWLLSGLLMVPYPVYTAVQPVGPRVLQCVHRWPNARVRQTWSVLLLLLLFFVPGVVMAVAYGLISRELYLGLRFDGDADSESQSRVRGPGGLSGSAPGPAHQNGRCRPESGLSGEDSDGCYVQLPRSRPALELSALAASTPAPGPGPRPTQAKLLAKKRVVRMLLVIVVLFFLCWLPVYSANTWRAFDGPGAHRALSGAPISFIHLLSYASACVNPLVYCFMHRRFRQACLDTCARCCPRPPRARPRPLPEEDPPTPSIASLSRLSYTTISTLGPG
As to the kind of experiment: Inhibition of binding of sulphated [125I]-CCK8 to receptors of guinea-pig brain membranes. The source says:
of guinea-pig brain membranes (males, COB LABO, 325-350 g) according to the protocol described by INNIS R. B. and SNYDER S. M., Eur. J. Pharmacol., 65, 123-124, 1980.

The mark [4] stands for this setting: guinea-pig brain membranes, read-out: Binding (IC50) [125I]-CCK8-SO4 Brain.

Read-outs that look alike come from different tables or passages of the source. A value given as a limit tells only on which side of the number the result lay.

For the compound `CN1C(=O)C(NC(=O)c2cc3ccccc3[nH]2)N=C(c2ccccc2)c2ccccc21` (racemic) [IIa, reference compound], the LD50 in “Acute toxicity” was greater than 600 mg/kg. Further, the ED50 in data set [1] amounted to 0.05 mg/kg.

`O=C(NC1N=C(c2ccccc2)c2cccc3c2N(CC3)C1=O)c1cc2ccccc2[nH]1` (centres unmarked) [Ia, 4-(indol-2-ylcarbonylamino)-phenyl-6-tetrahydro-1,2,3,4-pyrrolo[3,2,1-jk][1,4]benzodiazepin-3-one]: in data set [2], the IC50 is 5.3 nM and the “ratio of the IC50 for the brain receptors to the IC50 for the pancreas receptors” value (shortened to “ratio of the IC50”) was found to be 209.4. Moreover, in “IRWIN's tests (behavior)”, the “IRWIN (first dose modifying one of the parameters of behavior)” value (“IRWIN” for short) is greater than 1000 mg/kg and the selectivity ratio was greater than 7600. In “Acute toxicity”, this compound had a 50% lethal dose (LD50) greater than 1000 mg/kg. For the same compound, in data set [1], the ED50 stood at 0.104 mg/kg. Also, the IC50 in data set [3] was 1110 nM.

In the case of `O=C(NC1N=C(c2ccccc2)c2cccc3c2N(CC3)C1=O)c1ccc(Cl)cc1` (centres unmarked) [Ib, 4-(4-Chlorobenzoylamino)-6-phenyl-1,2,3,4-tetrahydropyrrolo-[3,2,1-jk]benzodiazepin[1,4]-3-one], in data set [2], the 50% inhibitory concentration (IC50) was 37 nM and the “ratio of the IC50” value stood at 83.8. Also, the half-inhibitory concentration (IC50) in data set [3] (setting [4]) is 3100 nM.

Take `O=C(NC1N=C(c2ccccc2)c2cccc3c2N(CC3)C1=O)c1cccc(I)c1` (centres unmarked) [Ic, 4-(3-Iodobenzoylamino)-6-phenyl-1,2,3,4-pyrrolo[3,2,1-j,k][1,4]benzodiazepin-3-one]: in data set [2], the IC50 was 45 nM and the “ratio of the IC50” value was 195.6. Besides, the IC50 in data set [3] (setting [4]) stood at 8800 nM.

Consider `O=C(N[C@H]1N=C(c2ccccc2)c2cccc3c2N(CC3)C1=O)c1cc2ccccc2[nH]1` [Ie, (-)-(4S)-4-(2-Indolylcarbonylamido)-6-phenyl-1,2,3,4-tetrahydropyrrolo[3,2,1-jk][1,4]benzodiazepin-3-one], for which, in data set [2], the half-inhibitory concentration (IC50) worked out at 1.5 nM and the “ratio of the IC50” value worked out at 318.0. Moreover, in “IRWIN's tests (behavior)”, the “IRWIN” value was greater than 1000 mg/kg and the selectivity ratio was greater than 11000. In the data set “Acute toxicity”, this compound yielded a median lethal dose (LD50) greater than 1000 mg/kg. In data set [1], this compound returned an ED50 of 0.087 mg/kg. The IC50 in data set [3] stood at 477 nM.

Consider `O=C(N[C@@H]1N=C(c2ccccc2)c2cccc3c2N(CC3)C1=O)c1cc2ccccc2[nH]1` [If, (+)-(4R)-4-(2-Indolycarbonylamino)-6-phenyl-1,2,3,4-tetrahydropyrrolo[3,2,1-jk][1,4]benzodiazepin-3-one], for which, in data set [2], the IC50 worked out at 8640 nM and the “ratio of the IC50” value is recorded as 2.8. This compound showed an IC50 in data set [3] of 24000 nM.

On to `O=C(NC1N=C(c2ccccc2F)c2cccc3c2N(CC3)C1=O)c1cc2ccccc2[nH]1` (centres unmarked) [Ig], for which, in data set [2], the IC50 was 0.023 nM and the “ratio of the IC50” value is listed as 15913. Further, in the data set “IRWIN's tests (behavior)”, the “IRWIN” value is greater than 300 mg/kg and the selectivity ratio was greater than 3900. In addition, the LD50 in the data set “Acute toxicity” was greater than 1000 mg/kg. Further, it took a dose of 0.076 mg/kg to reach the 50% effect level in data set [1] (ED50). Moreover, in data set [3], the IC50 came to 366 nM.

Regarding `O=C(NC1N=C(c2ccccc2F)c2cc(Cl)cc3c2N(CC3)C1=O)c1cc2cc(Cl)ccc2[nH]1` (centres unmarked) [Il, 8-chloro-4-[(5-chloro-2-indolyl)carbonylamino]-6-(2-fluorophenyl)-1,2,3,4-tetrahydropyrrolo[3,2,1-jk][1,4]benzodiazepin-3-one], in data set [2], the IC50 amounted to 12.3 nM and the “ratio of the IC50” value is 2552.2. Besides, the IC50 in data set [3] (setting [4]) turned out to be 21400 nM.

As to `O=C(NC1N=C(c2ccccc2F)c2cc(Cl)cc3c2N(CC3)C1=O)c1cc(Cl)cc(Cl)c1` (centres unmarked) [Im, 8-chloro-4-(3,5-dichlorobenzoylamino)-6-(2-fluorophenyl)-1,2,3,4-tetrahydropyrrolo[3,2,1-jk][1,4]benzodiazepin-3-one], in data set [2], the IC50 amounted to 30.6 nM and the “ratio of the IC50” value came to 831.1. In data set [3] (setting [4]), the IC50 was determined as 25400 nM.

Take `O=C(NC1N=C(c2ccccc2)c2cccc3c2N(CCC3)C1=O)c1cc2ccccc2[nH]1` (centres unmarked) [In, 5-(2-indolylcarbonylamino)-7-phenyl-1,2,3,3a,4,5-hexahydropyrido[3,2,1-jk][1,4]benzodiazepin-4-one]: in data set [2], the IC50 stood at 3.9 nM and the “ratio of the IC50” value was determined as 104.4. In addition, the half-inhibitory concentration (IC50) in data set [3] is 407 nM.

(Values after patent US4929614A, “Benzodiazepines, process and intermediates for the preparation thereof and their application in therapy” (Jouveinal S.A., priority 1988, dated 1990).)
